These molecules were tested on MDA-MB-435 (assay: MDR-reversal activity evaluated against the resistant human breast tumor cell line MDA-435/LCC6-MDR).
Assay type: functional
Design: concentration or dose not given beside the values

Row | SMILES | Reduction
1 | CC(=O)O[C@H]1C(=O)[C@]2(C)[C@@H](OC(=O)/C=C/c3ccc(C(=O)c4ccccc4)cc3)C[C@H]3OC[C@@]3(OC(C)=O)[C@H]2[C@H](OC(=O)c2ccccc2)[C@]2(O)C[C@H](OC(C)=O)C(C)=C1C2(C)C | 92%
2 | CC(=O)O[C@H]1C(=O)[C@]2(C)[C@@H](OC(=O)/C=C/c3ccc(OC(=O)c4cccc5ccccc45)cc3)C[C@H]3OC[C@@]3(OC(C)=O)[C@H]2[C@H](OC(=O)c2ccccc2)[C@]2(O)C[C@H](OC(C)=O)C(C)=C1C2(C)C | 89%
3 | CC(=O)O[C@H]1C[C@@]2(O)[C@@H](OC(=O)c3ccccc3)[C@@H]3[C@]4(OC(C)=O)CO[C@@H]4C[C@H](OC(=O)/C=C/c4ccc(C(=O)c5ccccc5)cc4)[C@@]3(C)C(=O)[C@H](OC(=O)OCc3ccccc3)C(=C1C)C2(C)C | 10%
4 | CC(=O)O[C@H]1C(=O)[C@]2(C)[C@@H](OC(=O)/C=C/c3ccc4c(c3)C(=O)c3ccccc3-4)C[C@H]3OC[C@@]3(OC(C)=O)[C@H]2[C@H](OC(=O)c2ccccc2)[C@]2(O)C[C@H](OC(C)=O)C(C)=C1C2(C)C | 91%
5 | CC(=O)O[C@H]1C(=O)[C@]2(C)[C@@H](OC(=O)/C=C/c3cccc4ccccc34)C[C@H]3OC[C@@]3(OC(C)=O)[C@H]2[C@H](OC(=O)c2ccccc2)[C@]2(O)C[C@H](O)C(C)=C1C2(C)C | 50%
6 | CC(=O)O[C@H]1C(=O)[C@]2(C)[C@@H](OC(=O)c3ccc(C(=O)c4ccccc4)cc3)C[C@H]3OC[C@@]3(OC(C)=O)[C@H]2[C@H](OC(=O)c2ccccc2)[C@]2(O)C[C@H](OC(C)=O)C(C)=C1C2(C)C | 88%
7 | CC(=O)O[C@H]1C(=O)[C@]2(C)[C@@H](OC(=O)Cc3ccc(C(=O)c4ccccc4)cc3)C[C@H]3OC[C@@]3(OC(C)=O)[C@H]2[C@H](OC(=O)c2ccccc2)[C@]23OC(=O)O[C@H]2[C@H](OC(C)=O)C(C)=C1C3(C)C | 44%
8 | CC(=O)O[C@H]1C[C@@]2(O)[C@@H](OC(=O)c3ccccc3)[C@@H]3[C@]4(OC(C)=O)CO[C@@H]4C[C@H](OC(=O)/C=C/c4ccc(C(=O)c5ccccc5)cc4)[C@@]3(C)C(=O)[C@H](OC(=O)/C=C/c3ccccc3)C(=C1C)C2(C)C | 11%
9 | CC(=O)O[C@H]1C(=O)[C@]2(C)[C@@H](OC(=O)/C=C/c3ccc(C(=O)Oc4ccccc4)cc3)C[C@H]3OC[C@@]3(OC(C)=O)[C@H]2[C@H](OC(=O)c2ccccc2)[C@]23OC(=O)O[C@H]2[C@H](OC(C)=O)C(C)=C1C3(C)C | 84%
10 | CC(=O)O[C@@]12CO[C@@H]1C[C@H](O)[C@@]1(C)C(=O)[C@H](O)C3=C(C)[C@@H](OC(=O)CCc4ccc5ccccc5c4)C[C@@](O)([C@@H](OC(=O)c4ccccc4)[C@H]21)C3(C)C | 37%
11 | CC(=O)O[C@H]1C(=O)[C@]2(C)[C@@H](OC(=O)/C=C/c3ccc(OC(=O)c4ccc(O)cc4)cc3)C[C@H]3OC[C@@]3(OC(C)=O)[C@H]2[C@H](OC(=O)c2ccccc2)[C@]2(O)C[C@H](OC(C)=O)C(C)=C1C2(C)C | 24%
12 | CC(=O)O[C@@]12CO[C@@H]1C[C@H](O)[C@@]1(C)C(=O)[C@H](O)C3=C(C)[C@@H](OC(=O)/C=C/c4ccc(C(=O)c5ccccc5)cc4)C[C@@](O)([C@@H](OC(=O)c4ccccc4)[C@H]21)C3(C)C | 0%
13 | CC(=O)O[C@H]1C[C@@]2(O)[C@@H](OC(=O)c3ccccc3)[C@@H]3[C@]4(OC(C)=O)CO[C@@H]4C[C@H](OC(C)=O)[C@@]3(C)C(=O)[C@H](OC(=O)/C=C/c3ccc(Sc4ccccc4)cc3)C(=C1C)C2(C)C | 28%
14 | CC(=O)O[C@H]1C(=O)[C@]2(C)[C@@H](OC(=O)Cn3ccc4ccccc43)C[C@H]3OC[C@@]3(OC(C)=O)[C@H]2[C@H](OC(=O)c2ccccc2)[C@]2(O)C[C@H](OC(C)=O)C(C)=C1C2(C)C | 83%
15 | CC(=O)O[C@H]1C(=O)[C@]2(C)[C@@H](OC(=O)/C=C/c3cccc(NC(=O)c4ccccc4)c3)C[C@H]3OC[C@@]3(OC(C)=O)[C@H]2[C@H](OC(=O)c2ccccc2)[C@]2(O)C[C@H](OC(C)=O)C(C)=C1C2(C)C | 83%

Each molecule was assayed on MCF7R (assay: MDR-reversal activity evaluated against the resistant human breast tumor cell line MCF7-R).
Assay type: functional
Design: concentration or dose not given beside the values

Row | SMILES | Reduction
16 | CC(=O)O[C@@]12CO[C@@H]1C[C@H](OC(=O)/C=C/c1ccc3ccccc3c1)[C@@]1(C)C(=O)[C@H](OC(=O)/C=C/c3ccc4ccccc4c3)C3=C(C)[C@@H](O)C[C@@](O)([C@@H](OC(=O)c4ccccc4)[C@H]21)C3(C)C | 45%
17 | CC(=O)O[C@H]1C(=O)[C@]2(C)[C@@H](OC(=O)CNC(=O)c3ccc4ccccc4c3)C[C@H]3OC[C@@]3(OC(C)=O)[C@H]2[C@H](OC(=O)c2ccccc2)[C@]2(O)C[C@H](O)C(C)=C1C2(C)C | 42%
18 | CC(=O)O[C@@]12CO[C@@H]1C[C@H](OC(=O)CCc1ccc(C(=O)c3ccccc3)cc1)[C@@]1(C)C(=O)[C@H](OC(=O)CCc3ccc(C(=O)c4ccccc4)cc3)C3=C(C)[C@@H](O)C[C@@](O)([C@@H](OC(=O)c4ccccc4)[C@H]21)C3(C)C | 99.7%
19 | CC(=O)O[C@H]1C(=O)[C@]2(C)[C@@H](OC(=O)/C=C/c3ccc(C(=O)c4ccccc4)cc3)C[C@H]3OC[C@@]3(OC(C)=O)[C@H]2[C@H](OC(=O)c2ccccc2)[C@]2(O)C[C@H](OC(C)=O)C(C)=C1C2(C)C | 99.7%
20 | CC(=O)O[C@@]12CO[C@@H]1C[C@H](OC(=O)/C=C/c1ccc3ccccc3c1)[C@@]1(C)C(=O)[C@H](OC(=O)CCc3ccc(C(=O)c4ccccc4)cc3)C3=C(C)[C@@H](O)C[C@@](O)([C@@H](OC(=O)c4ccccc4)[C@H]21)C3(C)C | 0%
21 | CC(=O)O[C@H]1C(=O)[C@]2(C)[C@@H](OC(=O)/C=C/c3ccc(C(=O)c4ccccc4)cc3)C[C@H]3OC[C@@]3(OC(C)=O)[C@H]2[C@H](OC(=O)c2ccccc2)[C@]2(O)C[C@H](O)C(C)=C1C2(C)C | 99.8%
22 | CC(=O)O[C@H]1C(=O)[C@]2(C)[C@@H](OC(=O)CCc3cccc4ccccc34)C[C@H]3OC[C@@]3(OC(C)=O)[C@H]2[C@H](OC(=O)c2ccccc2)[C@]2(O)C[C@H](O)C(C)=C1C2(C)C | 96%
23 | CC(=O)O[C@@]12CO[C@@H]1C[C@H](O)[C@@]1(C)C(=O)[C@H](OC(=O)/C=C/c3ccc(C(=O)c4ccccc4)cc3)C3=C(C)[C@@H](O)C[C@@](O)([C@@H](OC(=O)c4ccccc4)[C@H]21)C3(C)C | 95%
24 | CC(=O)O[C@H]1C(=O)[C@]2(C)[C@@H](OC(=O)CCC3CCCC4CCCCC43)C[C@H]3OC[C@@]3(OC(C)=O)[C@H]2[C@H](OC(=O)C2CCCCC2)[C@]2(O)C[C@H](O)C(C)=C1C2(C)C (some centres not stated) | 81%
25 | CC(=O)O[C@H]1C(=O)[C@]2(C)[C@@H](OC(=O)/C=C/c3ccc4ccccc4c3)C[C@H]3OC[C@@]3(OC(C)=O)[C@H]2[C@H](OC(=O)c2ccccc2)[C@]2(O)C[C@H](OC(C)=O)C(C)=C1C2(C)C | 99.3%
26 | CC(=O)O[C@H]1C(=O)[C@]2(C)[C@@H](OC(=O)c3ccc4ccccc4c3)C[C@H]3OC[C@@]3(OC(C)=O)[C@H]2[C@H](OC(=O)c2ccccc2)[C@]2(O)C[C@H](O)C(C)=C1C2(C)C | 97.5%
27 | CC(=O)O[C@H]1C(=O)[C@]2(C)[C@@H](OC(=O)/C=C/c3cccc4ccccc34)C[C@H]3OC[C@@]3(OC(C)=O)[C@H]2[C@H](OC(=O)c2ccccc2)[C@]2(O)C[C@H](O)C(C)=C1C2(C)C | 96%

Source: ChEMBL document CHEMBL1145206, “Design, synthesis and structure-activity relationships of novel taxane-based multidrug resistance reversal agents” (2005)
